Assay results as given in paper PMC10254366, “The Structure of Maltooctaose-Bound Escherichia coli Branching Enzyme Suggests a Mechanism for Donor Chain Specificity” (Molecules, 2023).

Biological target: T1, EcBE (E. coli branching enzyme) (Escherichia coli, UniProt P07762)
T1 construct: gene glgB; N-domain removed (first 113 amino acids of full-length EcBE); CBM48, catalytic and C-terminal domains kept; overexpressed in E. coli; four molecules per asymmetric unit
T1 sequence (P07762 114-728): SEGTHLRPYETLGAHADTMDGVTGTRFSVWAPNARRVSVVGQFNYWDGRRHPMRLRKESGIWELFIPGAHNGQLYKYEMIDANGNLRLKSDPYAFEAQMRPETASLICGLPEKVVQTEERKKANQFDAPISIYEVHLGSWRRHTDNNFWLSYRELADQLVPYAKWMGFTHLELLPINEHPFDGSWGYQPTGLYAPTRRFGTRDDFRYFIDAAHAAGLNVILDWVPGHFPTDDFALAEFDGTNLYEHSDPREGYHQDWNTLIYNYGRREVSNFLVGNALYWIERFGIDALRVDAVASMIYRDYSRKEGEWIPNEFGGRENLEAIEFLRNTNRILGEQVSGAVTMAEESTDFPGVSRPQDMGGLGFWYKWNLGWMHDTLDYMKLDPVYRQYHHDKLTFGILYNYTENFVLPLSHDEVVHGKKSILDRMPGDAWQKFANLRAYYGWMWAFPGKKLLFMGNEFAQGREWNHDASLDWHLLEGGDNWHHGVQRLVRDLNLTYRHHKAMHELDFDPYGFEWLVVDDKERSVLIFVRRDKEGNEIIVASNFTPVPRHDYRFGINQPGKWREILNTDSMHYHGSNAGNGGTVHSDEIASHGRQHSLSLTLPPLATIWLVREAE
Test: X-ray crystallography, crystal soak, […] Å
Format: binding
Conditions: crystals soaked in 150 mM maltooctaose 5.5 h, 1.3 M ammonium tartrate pH 7.6, 10% PEG 4000; surface sites I-V and VIII-XII, not active site

OC[C@H]1O[C@H](O[C@H]2[C@H](O)[C@@H](O)[C@@H](O[C@H]3[C@H](O)[C@@H](O)[C@@H](O[C@H]4[C@H](O)[C@@H](O)[C@@H](O[C@H]5[C@H](O)[C@@H](O)[C@@H](O[C@H]6[C@H](O)[C@@H](O)[C@@H](O[C@H]7[C@H](O)[C@@H](O)[C@@H](O[C@H]8[C@H](O)[C@@H](O)C(O)O[C@@H]8CO)O[C@@H]7CO)O[C@@H]6CO)O[C@@H]5CO)O[C@@H]4CO)O[C@@H]3CO)O[C@@H]2CO)[C@H](O)[C@@H](O)[C@@H]1O (stereo partly shown) [M8, maltooctaose]
X-ray crystallography, crystal soak, 3.0 Å: we report the crystal structure of the maltooctaose-bound branching enzyme from the enterobacteria E. coli
